Test results reported in PubChem BioAssay (NCI).
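How tested: cells in 96-well plates exposed to compound for 48 hours at five concentrations. TGI: total growth inhibition.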

Experiments:
Assay in all cases: NCI tumour cell line growth inhibition, 48 h
[1] = system: DMS 273 small cell lung
[2] = system: OVCAR-8 ovarian
[3] = system: SF-268 CNS
[4] = system: M19-MEL melanoma
[5] = system: SK-MEL-5 melanoma
[6] = system: 786-0 renal
[7] = system: XF 498 CNS
[8] = system: SW-620 colon
[9] = system: NCI-H226 lung
[10] = system: UACC-257 melanoma
[11] = system: SNB-75 CNS
[12] = system: SN12C renal
[13] = system: SK-MEL-2 melanoma
[14] = system: SR leukemia
[15] = system: KM20L2 colon
[16] = system: SK-OV-3 ovarian
[17] = system: TK-10 renal
[18] = system: OVCAR-3 ovarian
[19] = system: MALME-3M melanoma
[20] = system: SNB-78 CNS
[21] = system: NCI-H23 lung
[22] = system: NCI-H460 lung
[23] = system: LOX IMVI melanoma
[24] = system: NCI-H522 lung
[25] = system: KM12 colon
[26] = system: CAKI-1 renal
[27] = system: IGROV1 ovarian
[28] = system: HOP-18 NSCLC
[29] = system: HOP-62 NSCLC
[30] = system: COLO 205 colon
[31] = system: U251 CNS
[32] = system: A549 NSCLC
[33] = system: HL-60(TB) leukemia
[34] = system: MOLT-4 leukemia
[35] = system: UACC-62 melanoma
[36] = system: HCC-2998 colon
[37] = system: K-562 leukemia
[38] = system: RXF 393 renal
[39] = system: SF-295 CNS
[40] = system: A498 renal
[41] = system: OVCAR-4 ovarian
[42] = system: UO-31 renal
[43] = system: HT29 colon
[44] = system: EKVX NSCLC
[45] = system: SNB-19 CNS
[46] = system: RXF-631 renal
[47] = system: ACHN renal
[48] = system: SF-539 CNS
[49] = system: DLD-1 colon
[50] = system: M14 melanoma
[51] = system: SK-MEL-28 melanoma
[52] = system: CCRF-CEM leukemia
[53] = system: LXFL 529 NSCLC
[54] = system: OVCAR-5 ovarian
[55] = system: HCT-116 colon

Measured: TGI

O=C1CC(C[C@H](O)C2CCCCC2O)CC(=O)N1Cc1ccccc1 (stereo not given in full)
> 100 µM: all assays above
